# Results reported in patent publication US20260337209A1, “BORON-CAPPED CLATHROCHELATE AND MACROCYCLIC LIGANDS AND METAL COMPLEXES THEREOF” (UVic Industry Partnerships Inc., priority 2022, published 2026).
# Counter-ions that a name gives are not always drawn.
# Legend:
# Format in all cases: physicochemical
# solubility in solvents = details: for solubility in acetone: solvent acetone
# [1] = CV (cyclic voltammetry) in dry CH3CN; details: 0.1 M NBu^n4^+PF6^−
# Procedure: Mauve powder. Yield: 92% (based on formula). Mp. dec. 315° C. ^1H NMR (300 MHz, dmso-d6, 298 K): δ 80.0 (1H relative int., v1/2=450 Hz), 77.9 (1H, v1/2=50 Hz), 53.1 (2H, v1/2=480 Hz), 46.8 (2H, v1/2=450 Hz), 39.4 (2H and 1H overlap, broad and sharp resonances), 21.8 and 19.5 (2H each, broad and overlapping), 13.0 (1H, v1/2=400 Hz), −2.0 (1H, v1/2=350 Hz), −4.2 (1H, v1/2=350 Hz), […] (2H, v1/2=450 Hz), −8.6 (1H, v1/2=40 Hz), −28.7 (1H, v1/2=50 Hz), −52.7 (1H, v1/2=450 Hz), −72.8 (v1/2=500 Hz). NMR (360 MHz, dmso-d6, 373 K): δ 18.49 (6H, br s, 4′- or 5′-pzH, v1/2=85 Hz), 17.00 (6H, br s, 3,5-pyH, v1/2=65 Hz), 7.88 (6H, br s, 4′- or 5′-pzH, v1/2=80 Hz), 4.18 (3H, br s, 4-pyH, v1/2=30 Hz), −4.25 (2H, br s, BH, v1/2=320 Hz). […] Fc/Fc^+); Co(NO3)2 under the same conditions: E1/2 (ox)=+1.8 V (vs. Fc/Fc^+). μeff=4.7 BM (Evans' method). A mononuclear 1:1 complex [9a]of cage [4a] with Co^2+ has been characterized by X-ray crystallography. A Co(OH2)3^2+ unit is bound up in the tris(pyrazolyl) cap.
# A blue-green powder was obtained from reaction of Cu(NO3)2(H2O)2.5 with [4a] in a 1:1 ratio. The ^1H NMR spectrum of this product is very similar to that of [11c′], obtained as one product in the reaction of Cu(O3SCF3)2 with [4a] in 3:1 ratio. […]
# [2] = TGA (thermogravimetric analysis); details: [4a]·i-PrOH·2 H2O
# Procedure: Exemplary embodiments of the technology are illustrated by the following non-limiting Examples, in which the reactions were carried out under air or nitrogen as indicated using commercially available reagents as received unless otherwise specified. NMR spectra were recorded on Bruker AVANCE 300, 360 or 500 MHz instruments relative to residual solvent resonances (^1H, ^13C), an external reference (BF3·OEt2 for ^11B) or by indirect detection (^15N by HMBC, in ppm relative to NH3). Melting points were determined using an Omega Engineering Model 199 instrument and are uncorrected. Mass spectra were recorded on a Q-TOF II instrument by MicroMass using electrospray ionization. TGA were recorded between room temperature and 600° C. Elemental analysis for C, H and N were obtained by Canadian Microanalytical Services, Delta, B.C., Canada or Guelph Chemical Laboratories Ltd., Guelph, ON, Canada.
compound,measurement,setting,value
"CC1(C)c2ccn(n2)Bn2ccc(n2)C(C)(C)c2ccn(n2)Bn2ccc1n2 [8′a, Bis(2,2-dipyrazolylpropane)diborate dipotassium salt]",solubility in diethyl ether,"solubility in solvents; diethyl ether, relative to the corresponding cage [7′a]",notably less soluble
"c1cc2cc(c1)-c1ncn(n1)B1n3cnc(n3)-c3cccc(c3)-c3ncn(n3)B(n3cnc-2n3)n2cnc(n2)-c2cccc(c2)-c2ncn1n2 [7a, tris(2,6-di(1′,2′,4′-triazol-3′ yl)benzene)diborate dipotassium salt]",solubility in dmso-d6,"solubility in solvents; dmso-d6, mild heating",dissolved with mild heating in dmso-d6
same,solubility in acetone,solubility in solvents,would not dissolve in acetone
O=[N+]([O-])[O-].O=[N+]([O-])[O-].[Cu+2] [Cu(NO3)2],E1/2 (red),[1],−0.8 V (vs. Fc/Fc^+)
O=[N+]([O-])[O-].O=[N+]([O-])[O-].[Co+2] [Co(NO3)2],E1/2 (ox),[1]; 250 mV s^−1,+1.8 V (vs. Fc/Fc^+)
"Tris(2,6-pyrazolyl-4-(4′-methoxybenzylthiolato)pyridino)diborate dipotassium salt [4t]",solubility in benzene,solubility in solvents; solvent benzene,somewhat soluble
"c1cc2nc(c1)-c1ccn(n1)B1n3ccc(n3)-c3cccc(n3)-c3ccn(n3)B(n3ccc-2n3)n2ccc(n2)-c2cccc(n2)-c2ccn1n2 [4a, Tris(2,6-pyrazolylpyridino)diborate dipotassium salt]",onset of decomposition (TGA),[2],> 450 °C
same,solubility in halocarbons,solubility in solvents; CH2Cl2 and CHCl3,slightly soluble
same,solubility in alcohols,"solubility in solvents; MeOH, EtOH, i-PrOH",slightly soluble
same,solubility in pure water,solubility in solvents; pure water,very limited solubility
same,solubility in DMSO,solubility in solvents; solvent DMSO,very soluble
same,solubility in THF,solubility in solvents; solvent THF,moderately soluble
same,solubility in acetone,solubility in solvents,very soluble
same,solubility in acidic water,solubility in solvents; solvent acidic water,moderately soluble
same,solubility in ethyl acetate,solubility in solvents; solvent ethyl acetate,moderately soluble
